The results in this text go back to patent publication US12480948B2, “Ratiometric fluorescent probe for detecting aminopeptidase N, and preparation method and use thereof” (Jilin University, priority 2022, dated 2025).

One series deals with APN in HepG2 cells. The series is described as follows: APAP-induced hepatotoxicity and hepatoprotective drugs in HepG2 cells, imaged with NB-APN. It counts as cell-based, human. The settings on record: for effect on the red fluorescence of HepG2 cells: drug 300 μM + APAP 1,000 μM + NB-APN 5 μM. The source says:
It has been reported that the excessive use of antipyretic analgesic acetaminophen (APAP) can cause drug-induced liver injury, during which process an APN concentration increases. The present disclosure also evaluates the performance of NB-APN in monitoring APN changes during APAP-induced acute hepatotoxicity and a drug treatment thereof. The NB-APN was used to evaluate the production of APN in APAP-stimulated cells. […] Furthermore, the NB-APN was used to study a relationship between the hepatotoxicity therapy and the APN level in living cells. Four drugs (NAC, GSH, TIO, and Glu) were investigated as anti-DILI hepatoprotective agents. […] This may be because the intake of GSH helps to improve the detoxification ability of the liver and reduce the damage of APAP to the liver. In addition, the western blot result was also consistent with the result of fluorescent imaging.

A further series has as its target T1, APN in liver (Mus musculus, UniProt P97449).
T1 construct: from tissue; host or cells: liver of nude mice, in vivo
T1 sequence (P97449 1-966): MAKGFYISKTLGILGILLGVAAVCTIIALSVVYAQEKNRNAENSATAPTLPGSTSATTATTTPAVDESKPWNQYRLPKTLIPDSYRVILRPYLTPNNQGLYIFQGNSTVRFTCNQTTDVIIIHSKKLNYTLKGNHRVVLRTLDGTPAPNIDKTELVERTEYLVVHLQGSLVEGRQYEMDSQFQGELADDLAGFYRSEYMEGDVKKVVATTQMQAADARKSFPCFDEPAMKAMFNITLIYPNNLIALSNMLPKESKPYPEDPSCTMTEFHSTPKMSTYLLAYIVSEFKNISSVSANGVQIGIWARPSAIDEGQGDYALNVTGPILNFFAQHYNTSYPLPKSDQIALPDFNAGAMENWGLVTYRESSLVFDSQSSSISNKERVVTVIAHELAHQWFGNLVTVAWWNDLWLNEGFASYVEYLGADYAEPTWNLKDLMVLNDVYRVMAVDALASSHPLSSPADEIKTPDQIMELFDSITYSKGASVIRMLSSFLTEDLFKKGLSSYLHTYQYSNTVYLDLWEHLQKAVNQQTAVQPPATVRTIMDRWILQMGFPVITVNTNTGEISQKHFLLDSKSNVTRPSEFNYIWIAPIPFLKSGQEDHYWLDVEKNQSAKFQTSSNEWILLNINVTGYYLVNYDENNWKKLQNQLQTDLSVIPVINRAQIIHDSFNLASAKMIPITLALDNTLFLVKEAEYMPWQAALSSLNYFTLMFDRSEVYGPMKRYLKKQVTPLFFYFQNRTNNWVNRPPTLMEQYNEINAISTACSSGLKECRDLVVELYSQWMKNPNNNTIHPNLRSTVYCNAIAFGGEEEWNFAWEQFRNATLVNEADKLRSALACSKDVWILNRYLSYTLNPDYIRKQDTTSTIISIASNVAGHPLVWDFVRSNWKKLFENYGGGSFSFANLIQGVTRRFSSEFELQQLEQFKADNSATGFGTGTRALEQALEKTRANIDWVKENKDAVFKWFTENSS
Nature of the series: In vivo imaging of APN activity in nude mice with DILI. Set-up: species or system nude mouse. Conditions: 300 mg/kg APAP intraperitoneal, 12 h after NB-APN tail vein injection. On the procedure: The NB-APN was used to image the activity of APN in nude mice with DILI. Nude mice were intraperitoneally pre-injected with pH 7.4 PBS (control), and then injected with NB-APN through the tail vein. The background fluorescence signal of the nude mice was extremely low 6 h and 12 h after the NB-APN injection. […] In addition, the nude mouse with DILI was sacrificed, and the main organs (heart, liver, spleen, lung, and kidney) and the tumor were collected for imaging after 3 h of NB-APN pretreatment.

In another series the target is APN (Homo sapiens, UniProt P15144). Nature of the series: Inhibitor experiments with bestatin in the NB-APN + APN system. It counts as biochemical. The settings on record: bestatin 1 μM and 10 μM, APN 25 ng/mL, NB-APN 10 μM, 37° C., pH 7.4, 20 min. On the procedure: Inhibitor experiments: a: NB-APN (10 μM); b: system (a)+APN (25 ng/mL); c: system (b)+bestatin (1 μM); and d: system (b)+bestatin (10 μM).
Chain of APN (P15144 whole entry, species assumed): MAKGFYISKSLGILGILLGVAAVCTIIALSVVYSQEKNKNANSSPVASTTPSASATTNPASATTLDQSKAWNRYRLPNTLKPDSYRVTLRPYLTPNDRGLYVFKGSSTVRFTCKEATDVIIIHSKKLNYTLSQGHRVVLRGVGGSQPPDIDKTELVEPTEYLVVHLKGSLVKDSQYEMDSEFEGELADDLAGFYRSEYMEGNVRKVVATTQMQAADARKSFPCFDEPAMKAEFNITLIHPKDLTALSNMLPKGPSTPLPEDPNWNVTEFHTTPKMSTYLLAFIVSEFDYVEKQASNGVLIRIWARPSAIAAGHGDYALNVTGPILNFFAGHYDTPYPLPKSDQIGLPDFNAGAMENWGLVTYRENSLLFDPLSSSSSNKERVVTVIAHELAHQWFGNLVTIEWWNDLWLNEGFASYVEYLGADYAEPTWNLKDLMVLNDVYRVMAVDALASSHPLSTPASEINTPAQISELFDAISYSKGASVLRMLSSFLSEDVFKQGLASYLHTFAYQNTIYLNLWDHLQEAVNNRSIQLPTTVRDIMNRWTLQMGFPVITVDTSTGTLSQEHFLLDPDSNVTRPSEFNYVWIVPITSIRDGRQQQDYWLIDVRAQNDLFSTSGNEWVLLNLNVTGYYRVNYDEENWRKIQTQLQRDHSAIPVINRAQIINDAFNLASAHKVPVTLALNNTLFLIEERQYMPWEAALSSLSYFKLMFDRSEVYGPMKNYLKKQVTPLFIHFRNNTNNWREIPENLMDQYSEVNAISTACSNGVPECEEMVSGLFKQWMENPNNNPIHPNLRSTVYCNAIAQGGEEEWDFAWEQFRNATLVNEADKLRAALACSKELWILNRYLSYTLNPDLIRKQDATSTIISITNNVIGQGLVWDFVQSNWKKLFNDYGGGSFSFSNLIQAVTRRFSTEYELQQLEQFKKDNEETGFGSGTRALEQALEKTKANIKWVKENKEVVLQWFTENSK
The influence of different concentrations of bestatin on the fluorescence ratio I675/I610 of 10 μM NB-APN (green) or 10 μM NB (red) was investigated, with λex=560 nm, 37° C., pH 7.4, 20 min.

Series [1] deals with T2, APN in liver cancer cells HepG2 (Homo sapiens, UniProt P15144).
T2 construct: after acting on HepG2 cells, indicating the existence of intrinsic APN; endogenous in cells; host or cells: HepG2
T2 sequence (P15144 whole entry): as the sequence (P15144 whole entry, species assumed) above
The series is described as follows: Confocal ratiometric cell imaging of APN, HepG2. It counts as cell-based. Conditions: HepG2, bestatin 100 μM pre-treatment 1 h, NB-APN 5 μM 30 min. On the procedure: (§1) The probe NB-APN was used for the imaging analysis of APN in liver cancer cells HepG2 and normal hepatocytes LO2. A confocal fluorescence microscope was adopted, and an excitation light source with a wavelength of 559 nm was adopted. The light emitted from a yellow channel (580 nm to 620 nm) and a red channel (660 nm to 700 nm) was collected. The HepG2 cells and LO2 cells were each pre-treated with bestatin (100 μM) for 1 h and then incubated with NB-APN (5 μM) for 30 min.

Series [2] deals with T3, APN in normal hepatocytes LO2 (Homo sapiens, UniProt P15144).
T3 construct: endogenous in cells; host or cells: LO2
T3 sequence (P15144 whole entry): as the sequence (P15144 whole entry, species assumed) above
The series is described as follows: Confocal ratiometric cell imaging of APN, LO2. It counts as cell-based. Conditions: LO2, bestatin 100 μM pre-treatment 1 h, NB-APN 5 μM 30 min. The procedure:
as §1

The target of series [3] is T4, APN in transplanted tumor (Homo sapiens, UniProt P15144).
T4 construct: from tissue; host or cells: HepG2 xenograft tumour in nude mouse
T4 sequence (P15144 whole entry): as the sequence (P15144 whole entry, species assumed) above
The series is described as follows: In vivo fluorescent imaging of HepG2 tumor-transplanted nude mice. Also noted: species or system nude mouse. Conditions: 50 μL bestatin (100 μM) pre-injected 1 h before NB-APN. The procedure:
Transplanted tumors from two nude mice were respectively pre-injected with 50 μL of PBS (control) and bestatin (100 μM), and 1 h later, 50 μL of NB-APN (50 μM) was intratumorally injected. Imaging was conducted at different time points (0 h, 0.25 h, 0.5 h, 1.0 h, 2.0 h, and 4.0 h) after the NB-APN injection.
The intratumoral injection was adopted to study tumor imaging in a nude mouse liver cancer model under the red luminescence channel, and results are shown in FIG. 12. The fluorescence background of the nude mouse before the probe injection was very low. […] It can be considered accordingly that the fluorescence signal in a tumor is caused by the enzymatic activity of APN and thus the probe NB-APN can detect APN at a living organism level.

As for `CC(=O)Nc1ccc(O)cc1` [APAP, acetaminophen], the “change of R value (APN level) with APAP concentration” value in the series with APN in HepG2 cells (HepG2, APAP 500 μM and 1,000 μM, NB-APN 5 μM) is “gradual increase in the R value”. Also, the “liver fluorescence (APN expression) in nude mice” value on APN in liver is given as “strong fluorescence appeared in the liver”.

Regarding `N[C@@H](CCC(=O)N[C@@H](CS)C(=O)NCC(=O)O)C(=O)O` [GSH, glutathione], the “anti-hepatotoxic effect with APN as hepatotoxicity index, compared” value in the series on APN in HepG2 cells (drug 300 μM + APAP 1,000 μM) is “better than that of NAC and Glu, but worse than that of TIO”. Besides, the “effect on the red fluorescence of HepG2 cells” value (“effect on the red fluorescence” for short) in the series with APN in HepG2 cells was “obvious inhibitory effect”.

For `CC(=O)N[C@@H](CS)C(=O)O` [NAC], the “effect on the red fluorescence” value with APN in HepG2 cells was “obvious inhibitory effect”.

As to `CC(S)C(=O)NCC(=O)O` (stereo not shown) [TIO], the “effect on the red fluorescence” value with APN in HepG2 cells was “obvious inhibitory effect”.

Take `CC(C)C[C@H](NC(=O)[C@@H](O)[C@H](N)Cc1ccccc1)C(=O)O` [bestatin]: the “effect on the fluorescence ratio signal I675/I610 of the NB-APN + APN system” value at APN is “significant inhibitory effect”. The “effect on intracellular fluorescence ratio R” value in series [1] and in series [2] was “significantly reduced” each time. Further, in series [3], the “fluorescence signal at the tumor site compared with the group without inhibitor” value is “significantly weaker”.
